ChEMBL document CHEMBL4699559, “Discovery of CC-90011: A Potent and Selective Reversible Inhibitor of Lysine Specific Demethylase 1 (LSD1)” (J Med Chem, 2020)
Active and inactive are the calls of the source. The rule behind the calls is not given here.

Legend:
[1] = AUC (0 to 6 hrs) in CD1 mouse at 10 mg/kg, po; assay type: ADME, organism-based; set-up: time < 6 hr, route oral, dose 10 mg/kg; conditions: in vivo
[2] = target: hERG (KCNH2) (Homo sapiens, UniProt Q12809); assay: Inhibition of human ERG at 10 uM relative to control
Sequence of hERG (KCNH2) (Q12809 whole entry): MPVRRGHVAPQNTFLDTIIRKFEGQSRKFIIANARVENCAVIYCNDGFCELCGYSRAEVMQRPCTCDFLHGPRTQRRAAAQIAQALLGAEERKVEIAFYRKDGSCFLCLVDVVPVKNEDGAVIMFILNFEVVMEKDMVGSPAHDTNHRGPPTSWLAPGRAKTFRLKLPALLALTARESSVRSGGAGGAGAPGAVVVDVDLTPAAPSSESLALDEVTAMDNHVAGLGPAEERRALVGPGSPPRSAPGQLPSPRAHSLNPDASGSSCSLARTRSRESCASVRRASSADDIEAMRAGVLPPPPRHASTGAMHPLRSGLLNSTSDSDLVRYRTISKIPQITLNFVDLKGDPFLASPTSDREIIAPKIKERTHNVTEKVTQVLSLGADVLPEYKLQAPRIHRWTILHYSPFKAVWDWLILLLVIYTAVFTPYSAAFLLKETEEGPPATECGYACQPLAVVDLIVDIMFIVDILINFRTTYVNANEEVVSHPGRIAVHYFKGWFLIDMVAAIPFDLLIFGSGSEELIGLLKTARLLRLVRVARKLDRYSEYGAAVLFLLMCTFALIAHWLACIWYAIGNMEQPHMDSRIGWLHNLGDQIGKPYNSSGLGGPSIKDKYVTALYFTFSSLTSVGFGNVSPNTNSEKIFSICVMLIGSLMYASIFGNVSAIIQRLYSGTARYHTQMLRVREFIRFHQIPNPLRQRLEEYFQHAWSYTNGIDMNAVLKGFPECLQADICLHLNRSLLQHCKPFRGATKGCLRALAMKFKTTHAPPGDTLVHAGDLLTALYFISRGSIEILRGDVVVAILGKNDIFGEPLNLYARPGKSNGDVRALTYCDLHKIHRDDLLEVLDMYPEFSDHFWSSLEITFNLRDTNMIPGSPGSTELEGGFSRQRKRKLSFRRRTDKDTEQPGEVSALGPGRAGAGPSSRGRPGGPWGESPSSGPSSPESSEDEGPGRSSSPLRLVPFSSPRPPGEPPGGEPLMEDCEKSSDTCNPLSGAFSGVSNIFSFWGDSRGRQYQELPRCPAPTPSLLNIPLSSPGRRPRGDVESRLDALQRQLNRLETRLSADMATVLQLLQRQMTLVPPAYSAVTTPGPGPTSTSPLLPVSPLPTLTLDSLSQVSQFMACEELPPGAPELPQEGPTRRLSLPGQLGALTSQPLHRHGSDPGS

[3] = Clearance in CD1 mouse at 5 mg/kg, iv; assay type: ADME, organism-based; conditions: in vivo
[4] = system: Mus musculus; assay: Inhibition of GRP mRNA expression in Crl:CD1-Foxn1nu mouse xenografted with human NCI-H1417 cells at 2.5 mg/kg, po QD for 4 days and measured 24 hrs post last dose by qPCR analysis; assay type: functional, organism-based; conditions: time 5.0 day
[5] = target: T1, Amine oxidase [flavin-containing] A (Homo sapiens, UniProt P21397); assay: Inhibition of MAOA (unknown origin) at; conditions: dose <10 µM
T1 sequence (P21397 whole entry): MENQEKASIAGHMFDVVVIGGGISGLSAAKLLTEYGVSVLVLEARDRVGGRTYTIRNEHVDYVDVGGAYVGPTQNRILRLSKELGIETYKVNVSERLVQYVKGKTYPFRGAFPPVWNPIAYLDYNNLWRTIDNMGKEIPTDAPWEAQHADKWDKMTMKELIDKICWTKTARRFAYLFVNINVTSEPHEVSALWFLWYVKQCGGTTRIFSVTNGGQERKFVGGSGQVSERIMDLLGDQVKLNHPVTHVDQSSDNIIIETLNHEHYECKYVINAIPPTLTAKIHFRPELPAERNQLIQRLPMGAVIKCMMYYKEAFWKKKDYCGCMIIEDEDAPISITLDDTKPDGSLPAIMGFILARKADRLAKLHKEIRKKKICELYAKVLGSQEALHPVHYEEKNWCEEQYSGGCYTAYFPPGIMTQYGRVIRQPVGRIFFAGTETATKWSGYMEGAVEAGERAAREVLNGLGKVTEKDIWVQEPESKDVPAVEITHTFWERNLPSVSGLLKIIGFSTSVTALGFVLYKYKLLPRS

[6] = target: T2, Lysine-specific histone demethylase 2 (Homo sapiens) (UniProt Q8NB78); assay: Inhibition of LSD2 (unknown origin) at; conditions: dose microM <10
T2 sequence (whole entry): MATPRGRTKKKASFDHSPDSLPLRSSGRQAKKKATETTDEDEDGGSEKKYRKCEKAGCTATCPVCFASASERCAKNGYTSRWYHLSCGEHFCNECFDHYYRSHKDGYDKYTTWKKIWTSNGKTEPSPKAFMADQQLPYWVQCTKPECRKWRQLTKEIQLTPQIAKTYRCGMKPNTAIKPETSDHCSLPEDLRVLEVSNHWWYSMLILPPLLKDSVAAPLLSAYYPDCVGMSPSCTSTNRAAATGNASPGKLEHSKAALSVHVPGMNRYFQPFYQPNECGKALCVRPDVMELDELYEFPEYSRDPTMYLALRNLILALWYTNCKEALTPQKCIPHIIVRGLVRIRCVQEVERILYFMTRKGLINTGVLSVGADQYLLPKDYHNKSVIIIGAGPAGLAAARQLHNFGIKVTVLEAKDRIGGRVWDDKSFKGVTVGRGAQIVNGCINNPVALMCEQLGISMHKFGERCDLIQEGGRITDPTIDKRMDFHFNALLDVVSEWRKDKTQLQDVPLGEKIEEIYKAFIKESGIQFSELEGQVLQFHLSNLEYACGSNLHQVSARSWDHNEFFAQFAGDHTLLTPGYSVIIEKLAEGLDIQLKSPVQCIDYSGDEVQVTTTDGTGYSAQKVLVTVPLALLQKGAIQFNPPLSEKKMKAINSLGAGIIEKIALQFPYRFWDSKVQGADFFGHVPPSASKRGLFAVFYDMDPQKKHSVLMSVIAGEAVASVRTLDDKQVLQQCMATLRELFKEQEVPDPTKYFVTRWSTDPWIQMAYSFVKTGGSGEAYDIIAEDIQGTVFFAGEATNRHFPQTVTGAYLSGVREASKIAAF

[7] = AUC (0 to 24 hrs) in CD1 mouse at 5 mg/kg, po; assay type: ADME, organism-based; set-up: time < 24 hr, route oral, dose 5 mg/kg; conditions: in vivo
[8] = Toxicity in Crl:CD1-Foxn1nu mouse xenografted with human NCI-H1417 cells assessed as weight gain level at 2.5 to 5 mg/kg, po QD for 65 days relative to control; assay type: organism-based; conditions: in vivo, 1560 h, dose 2.5-5 mg/kg, time 65 day
[9] = system: Mus musculus; assay: Induction of in-vivo cell differentiation in Crl:CD1-Foxn1nu mouse patient-derived xenograft model xenografted with human LU2514 assessed as loosening of cellular structure at 10 mg/kg, po QD for 28 days and measured 15 days post last dose by H and E staining based assay; assay type: functional, organism-based; conditions: time 43.0 day
[10] = Protein binding in mouse plasma; assay type: ADME, cell-free; conditions: read-out: PPB (converted)
[11] = Antitumor activity against human LXFS615 xenografted in Crl:CD1-Foxn1nu mouse patient-derived xenograft model assessed as inhibition of tumor growth at 5 mg/kg, po dosed daily for 30 days relative to control; assay type: functional; conditions: 720 h, time 30 day, read-out: TGI
[12] = system: Mus musculus; assay: Inhibition of GRP mRNA expression in Crl:CD1-Foxn1nu mouse xenografted with human NCI-H1417 cells at 5 mg/kg, po QD for 4 days and measured 24 hrs post last dose by qPCR analysis; assay type: functional, organism-based; conditions: time 5.0 day
[13] = system: NCI-H1417; assay: Antitumor activity against human NCI-H1417 cells xenografted in Crl:CD1-Foxn1nu mouse assessed as tumor growth regression level at 5 mg/kg, po QD for 65 days relative to control; assay type: functional; conditions: time 65 day
[14] = system: Mus musculus; assay: Induction of in-vivo cell differentiation in Crl:CD1-Foxn1nu mouse patient-derived xenograft model xenografted with human LU2514 assessed as increase in apoptotic bodies at 10 mg/kg, po QD for 28 days and measured 15 days post last dose by H and E staining based assay; assay type: functional, organism-based; conditions: time 43.0 day
[15] = system: NCI-H1417; assay: Antitumor activity against human NCI-H1417 cells xenografted in Crl:CD1-Foxn1nu mouse assessed as tumor growth regression level at 2.5 mg/kg, po QD for 65 days relative to control; assay type: functional; conditions: time 65 day
[16] = Antitumor activity against human LU2514 xenografted in Crl:CD1-Foxn1nu mouse patient-derived xenograft model assessed as inhibition of tumor growth at 5 mg/kg, po QD for 28 days relative to control; assay type: functional; conditions: 672 h, time 28 day, read-out: TGI
[17] = Cmax in CD1 mouse at 5 mg/kg, po; assay type: ADME, organism-based; set-up: route oral, dose 5 mg/kg; conditions: in vivo
[18] = system: Kasumi 1; assay: Anti-proliferative activity in human Kasumi 1 cells incubated for 168 hrs by MTS assay; assay type: functional, cell-based; conditions: Kasumi 1, 168 h
[19] = Antitumor activity against human LU2514 xenografted in Crl:CD1-Foxn1nu mouse patient-derived xenograft model assessed as inhibition of tumor growth at 10 mg/kg, po QD for 28 days relative to control; assay type: functional; conditions: 672 h, time 28 day, read-out: TGI
[20] = Half life in CD1 mouse at 5 mg/kg, iv; assay type: ADME, organism-based; conditions: in vivo
[21] = target: T3, Amine oxidase [flavin-containing] B (Homo sapiens, UniProt P27338); assay: Inhibition of MAOB (unknown origin) at; conditions: dose <10 µM
T3 sequence (P27338 whole entry): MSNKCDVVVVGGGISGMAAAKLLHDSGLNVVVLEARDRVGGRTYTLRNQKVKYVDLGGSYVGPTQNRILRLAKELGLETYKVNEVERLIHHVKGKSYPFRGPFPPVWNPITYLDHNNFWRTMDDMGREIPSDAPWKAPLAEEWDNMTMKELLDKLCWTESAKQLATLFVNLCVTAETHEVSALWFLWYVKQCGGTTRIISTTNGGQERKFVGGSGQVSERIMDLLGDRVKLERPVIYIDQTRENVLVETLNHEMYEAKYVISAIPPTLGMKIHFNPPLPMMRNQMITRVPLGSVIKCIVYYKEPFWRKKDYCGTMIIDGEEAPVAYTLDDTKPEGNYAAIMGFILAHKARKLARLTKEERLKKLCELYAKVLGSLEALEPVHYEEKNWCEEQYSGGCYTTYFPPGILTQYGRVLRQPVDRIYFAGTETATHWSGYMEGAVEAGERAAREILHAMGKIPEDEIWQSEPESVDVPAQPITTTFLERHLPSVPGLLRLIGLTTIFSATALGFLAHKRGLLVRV

[22] = Toxicity in Crl:CD1-Foxn1nu mouse xenografted with human LXFS615 cells assessed as weight loss at 5 mg/kg, po dosed daily for 30 days relative to control; assay type: organism-based; conditions: in vivo, 720 h, time 30 day
[23] = Volume of distribution at steady state in CD1 mouse at 5 mg/kg, iv; assay type: ADME, organism-based; conditions: in vivo, read-out: Vdss
[24] = Oral bioavailability in CD1 mouse at 5 mg/kg; assay type: ADME, organism-based; conditions: in vivo
[25] = system: IMR-90; assay: Anti-proliferative activity in human IMR-90 cells incubated for 168 hrs by MTS assay; assay type: functional, cell-based; conditions: IMR-90, 168 h
[26] = system: Mus musculus; assay: Induction of in-vivo cell differentiation in Crl:CD1-Foxn1nu mouse patient-derived xenograft model xenografted with human LU2514 assessed as reduction in nucleus to cytoplasm ratio at 10 mg/kg, po QD for 28 days and measured 15 days post last dose by H and E staining based assay; assay type: functional, organism-based; conditions: time 43.0 day

Molecule `Cc1ccc(-c2cnc(N3CC[C@@H]4NCC[C@@H]4C3)nc2-c2ccc(C#N)cc2)cc1` has an AUC(0-t) at 6 h [1] of 14.5 µM·h and an inhibition at 10 µM [2] of 95%.

Work on `COc1ccc(-c2c(-c3ccc(C#N)cc3)nc(N3CCC(N)CC3)n(C)c2=O)cc1` yielded an AUC(0-t) at 6 h [1] of 6.1 µM·h and an inhibition at 10 µM [2] of 67%.

Molecule `Cc1ccc(-c2cnc(C[C@H]3CCNC3)nc2-c2ccc(C#N)cc2)cc1` has an AUC(0-t) at 6 h [1] of 1 µM·h and an inhibition at 10 µM [2] of 91%.

`COc1ccc(-c2c(-c3ccc(C#N)cc3)nc(N3CCC(N)CC3)n(C)c2=O)cc1F` showed an AUC(0-t) at 6 h [1] of 3 µM·h and an inhibition at 10 µM [2] of 48%.

With `Cc1ccc(-c2c(-c3ccc(C#N)cc3)nc(N3CCC(N)CC3)n(C)c2=O)cc1` the AUC(0-t) at 6 h [1] was 10.5 µM·h and the inhibition at 10 µM [2] was 83%.

For `COc1ccc(-c2c(-c3ccc(C#N)c(F)c3)nc(N3CCC(N)CC3)n(C)c2=O)cc1F.O=S(=O)(O)c1ccccc1` [PULRODEMSTAT BESILATE], the clearance [3] was 1.94 L/h/kg, the inhibition [4] was “Active” and the AUC(0-t) at 6 h [1] was 2.6 µM·h. For the same molecule, the “inhibition (INH)” value [5] was “Not Active”, the inhibition [6] was “inactive” and the AUC(0-t) at 24 h [7] was 1.8 µM·h. For the same molecule, the Activity [8] was “<= 7%”, the Activity [9] was “Active” and the fraction unbound [10] was 0.08. For the same molecule, the inhibition in vivo at 5 mg/kg [11] was 78%, the inhibition [12] was “Active” and the Activity [13] was 178%. For the same molecule, the Activity [14] was “Active”, the Activity [15] was 159% and the inhibition in vivo at 5 mg/kg [16] was 39%. It also gave a Cmax [17] of 0.36 µM, an inhibition at 10 µM [2] of 59% and an EC50 [18] of 2 nM. The inhibition in vivo at 10 mg/kg [19] was 56%, the half-life [20] was 2 h and the “inhibition (INH)” value [21] was “Not Active”. It also gave an Activity [22] of under 1%, a Vd [23] of 7.5 L/kg and a bioavailability [24] of 32%. The EC50 [25] was over 10000 nM and the Activity [26] was “Active”.

Work on `Cc1ccc(-c2c(-c3ccc(C#N)cc3)nc(N3CCC(N)CC3)c(=O)n2C)cc1` yielded an AUC(0-t) at 6 h [1] of 7.3 µM·h and an inhibition at 10 µM [2] of 95%.
